Experiment [1] deals with HIV strain containing the Y181C mutation. As to the kind of experiment: Spread assay, Y181C mutant strain. The class given is cell-based. As to conditions: Human immunodeficiency virus 1; spread assay, 10% FBS, Y181C mutant strain; read-out: CIC95. The gist of the method: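 Acute HIV-1 infection of T-lymphoid cells run in the presence of 10% FBS, […]; potency expressed as CIC95.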

Experiment [2] concerns mutant strain containing both the K103N and Y181C mutations. As to the kind of experiment: Spread assay, mutant strain containing both K103N and Y181C. It is filed as cell-based, HIV. As to conditions: Human immunodeficiency virus 1; analogous spread assay, K103N and Y181C double mutant strain; read-out: CIC95. The protocol: Assays for the inhibition of acute HIV-1 infection of T-lymphoid cells (alternatively referred to herein as the “spread assay”) were conducted in accordance with Vacca, J. P. et al., Proc. Natl. Acad. Sci. USA 1994, 91: 4096. The assays (using 10% FBS) tested for inhibition of wild type HIV-1 and of HIV strains containing the Y181C or K103N mutation. […] (Note that the compound of Example 6 was tested only up to a 833 nM concentration and the CIC95 value was determined to be >833 nM. The compound of Example 78 was not tested in the Y1818C assay.) The compounds of Examples 1 to 119 (including Examples 70A and 70B) had CIC95 values of less than 1000 nanomolar in the assay employing the K103N mutant strain. In an analogous assay employing a mutant strain containing both the K103N and Y181C mutations, the compounds of Examples 70A, 70B and 78-115 had CIC95 values of less than 1000 nanomolar.

As for `CC(C)c1c(C(=O)N(C)Cc2ccnc(Cl)c2F)[nH]c(C(N)=O)c1S(=O)(=O)c1ccccc1` [Example 108, N2-[(2-chloro-3-fluoropyridin-4-yl)methyl]-3-isopropyl-N2-methyl-4-(phenylsulfonyl)-1H-pyrrole-2,5-dicarboxamide], the IC95 in experiment [1] is under 8 µM; in experiment [2], under 1 µM.

`Cc1cc(C)cc(S(=O)(=O)c2c(C(N)=O)[nH]c(C(=O)N(C)Cc3ccncc3F)c2C)c1` [Example 109, 3-[(3,5-dimethylphenyl)sulfonyl]-N5-[(3-fluoropyridin-4-yl)methyl]-N5,4-dimethyl-1H-pyrrole-2,5-dicarboxamide]: the IC95 in experiment [1] was under 8 µM; in experiment [2] it was under 1 µM.

Take `CC(C)c1c(C(=O)N(C)Cc2ccncc2F)[nH]c(C(N)=O)c1S(=O)(=O)c1ccccc1` [Example 110, N2-[(3-fluoropyridin-4-yl)methyl]-3-isopropyl-N2-methyl-4-(phenylsulfonyl)-1H-pyrrole-2,5-dicarboxamide]: the IC95 in experiment [1] is under 8 µM; in experiment [2] it was under 1 µM.

As for `Cc1cc(C)cc(S(=O)(=O)c2c(C(N)=O)[nH]c(C(=O)N(C)Cc3c(F)cncc3F)c2C)c1` [Example 111, N5-[(3,5-difluoropyridin-4-yl)methyl]-3-[(3,5-dimethylphenyl)sulfonyl]-N5,4-dimethyl-1H-pyrrole-2,5-dicarboxamide], the IC95 in experiment [1] was under 8 µM; in experiment [2], under 1 µM.

In the case of `CC(C)c1c(C(=O)N(C)Cc2c(F)cncc2F)[nH]c(C(N)=O)c1S(=O)(=O)c1ccccc1` [Example 112, N2-[(3,5-difluoropyridin-4-yl)methyl]-3-isopropyl-N2-methyl-4-(phenylsulfonyl)-1H-pyrrole-2,5-dicarboxamide], the IC95 in experiment [1] is under 8 µM; in experiment [2], under 1 µM.

Regarding `Cc1cc(C)cc(S(=O)(=O)c2c(C(N)=O)[nH]c(C(=O)N(C)Cc3cc(Cl)ncc3F)c2C)c1` [Example 113, N5-[(2-chloro-5-fluoropyridin-4-yl)methyl]-3-[(3,5-dimethylphenyl)sulfonyl]-N5,4-dimethyl-1H-pyrrole-2,5-dicarboxamide], the IC95 was under 8 µM in experiment [1] and under 1 µM in experiment [2].

For `CC(C)c1c(C(=O)N(C)Cc2cc(Cl)ncc2F)[nH]c(C(N)=O)c1S(=O)(=O)c1ccccc1` [Example 114, N2-[(2-chloro-5-fluoropyridin-4-yl)methyl]-3-isopropyl-N2-methyl-4-(phenylsulfonyl)-1H-pyrrole-2,5-dicarboxamide], the IC95 in experiment [1] was under 8 µM; in experiment [2], under 1 µM.

For the compound `CC(C)c1c(C(=O)N(C)Cc2ccnc(N)c2F)[nH]c(C(N)=O)c1S(=O)(=O)c1ccccc1` [Example 115, N2-[(2-amino-3-fluoropyridin-4-yl)methyl]-3-isopropyl-N2-methyl-4-(phenylsulfonyl)-1H-pyrrole-2,5-dicarboxamide], the IC95 in experiment [1] was under 8 µM; in experiment [2], under 1 µM.

Source of the values: patent publication US20100113421A1, “NON-NUCLEOSIDE REVERSE TRANSCRIPTASE INHIBITORS” (priority 2006, published 2010).
